Where “and” joins values, the source holds several entries; their conditions need not be identical. Identical values can stand only once.
Experiments:
CEM cells [1] = assay: Targeted LC-MS/MS-MRM of de novo and salvage dCTP biosynthesis (nucleotide pools and newly replicated DNA); type: cell-based, human; set-up: key to Substrate utilization Glucose / Substrate utilization dC: ↓: partial decrease/inhibition; ↓↓↓: nearly complete inhibition; ↑: increase; ⟷: no change
Experimental: Cells were transferred into RPMI-1640 without glucose and supplemented with 10% dialyzed FBS (Gibco) containing the following labeled substrates: precursors for de novo [U-^13C6]glucose (Sigma-Aldrich, 389374) at 11 mM; precursors for purine salvage [U-^13C10,^15N5]dA (Cambridge Isotopes, CIL 3896), [^15N5]dA (Cambridge Isotopes, NLM-3895) and [^15N5]dG (Cambridge Isotopes, NLM-3899) at 5 µM or as indicated; and precursors for pyrimidine salvage: [U-^13C9,^15N3]dC (Silantes, 124603602) and [U-^13C10,^15N2]dT (Cambridge Isotopes, CNLM-3902) at 5 µM and [^15N2]orotate (Cambridge Isotopes, NLM-1048) at indicated concentrations. The cells were incubated for 12 h or as indicated before sample collection and processing.
The rates of dCTP incorporation into the DNA were determined using linear regression with procedure GLM in SAS (v. 9.4). DNA % label was transformed using a shifted log addition of 1 due to the presence of zeros in the data set. Rates were calculated using the slope of the regression line for the log transformed data and are presented in the table with the associated standard errors, along with the ratio between the rate of incorporation into DNA by the de novo and salvage pathways (Table 1).
Cell cycle synchronization. Cells were treated with a CDK4/6 inhibitor, Pablociclib or PD-0332991 (Selleckchem, S1116) for 18 h to synchronize them in the G1 phase. Subsequently, cells were washed twice with PBS containing 2% FBS (Omega Scientific) and released into fresh media. […]
Clinical Microarray Core on an Illumina HiSeq3000 using the SeqCap EZ Exome Enrichment Kit v3.0 (Roche).
Reads were mapped to UCSC hg19 (bwa-mem), deduplicaed (PicardTools), and subjected to base quality score recalibration and realignment around known indels according to the Broad Institute Genome Analysis Toolkit (GATK) Best Practices v3.0. Variants in genes associated with nucleotide biosynthesis were identified using the GATK HaplotypeCaller, and annotated with Oncotator (http://portals.broadinstitute.org/oncotator/). dNTP sample processing. 0.5 – 1 x 10^6 cells were collected into 1.5 mL microcentrifuge tubes and centrifuged (450 x g, 4 min, 4 °C). The supernatant was carefully aspirated and the cells were washed twice with 1 mL of cold PBS, followed each time by centrifugation (450 x g, 4 min 4 °C). The PBS were aspirated.
Thereafter, the pellets were treated with 10 µL of 10% trifluoroacetic acid with internal standards (1 µM […]
s, and incubated on ice for 10 min. 40 µL of 500 mM ammonium acetate, pH = 9.3, with the same internal standard (1 µM [15N3]dCMP and [15N3]dCTP) was then added and the samples were vigorously vortexed again for 30 s. The samples were centrifuged (14,000 x g, 10 min, 4 °C) to remove cell debris. The supernatants (~ 40 µL) were transferred into HPLC injector vials. Stock solutions (10 mM) of rCTP, rCDP, dCMP, dCDP, and dCTP (Sigma Aldrich) were prepared individually in water, and stored at –20 °C before use to generate calibration standards. Calibration standards were prepared and mixed together in water with internal standards (1 µM [15N3]dCMP and [15N3]dCTP) to make working stock concentrations in 100 nM – 100 µM range.
Calibration standards were diluted 10-fold into the same nucleotide extraction solution of 10% TFA/500 mM ammonium acetate (1:4, v/v) with internal standards (1 µM [15N3]dCMP and [15N3]dCTP) to give a final concentration in 10 nM – 10 µM. Nucleotide and calibration samples were processed together to minimize […]
DNA sample processing. Genomic DNA from 0.5 – 1 x 10^4 cells was extracted using the Quick-gDNA MiniPrep kit (Zymo Research, D3021) and hydrolyzed to nucleosides using the DNA Degradase Plus kit (Zymo Research, E2021), following manufacturer-supplied instructions. In the final step of DNA extraction, 50 µL of […]
water was used to elute the DNA into 1.5 mL microcentrifuge tubes. A nuclease solution (5 µL; 10X buffer/DNA Degradase Plus™/water, 2.5/1/1.5, v/v/v) was added to 20 µL of the eluted genomic DNA in an HPLC injector […]
vial. […]

CEM cells [2] = assay: Apoptosis assay, Annexin V and PI staining; type: cell-based, human; conditions: 500 nM 3-AP, 1 µM VE-822, 1 µM dCKi, 24 h
Experimental: (§1) Apoptosis and cell death were assayed using Annexin V-FITC and PI according to manufacturer’s instructions (FITC Annexin V Apoptosis Detection Kit, BD Sciences, #556570). […]
(§2) Annexin V staining. Cells were treated with the indicated treatments for 24 or 72 h, then collected and washed twice with 1 mL of FACS buffer (2% FBS in PBS). Induction of apoptosis and cell death were assayed by staining the cells with Annexin V-FITC and PI according to manufacturer’s instructions (FITC Annexin V Apoptosis Detection Kit, BD Sciences, #556570).
(§3) FACS analysis. All flow cytometry data were acquired on five-laser LSRII cytometers (BD) for analysis, and analyzed using FlowJo software (Tree Star). […]

[3] = tested on: dasatinib-resistant p185BCR-ABL Arf–/– pre-B-ALL cells; assay: Apoptosis assay, Annexin V and PI staining; type: cell-based, mouse; conditions: 350 nM 3-AP, 100 nM VE-822, 1 µM dCKi, 72 h
Experimental: as §1, §2, §3

[4] = CEM 12 h, 1 uM VE-822, 1 uM DI-82, 500 nM 3-AP, #1-#3
[5] = CEM after release from G1 arrest

## COc1ccc(-c2nc([C@@H](C)Sc3nc(N)cc(N)n3)c(C)s2)cc1OCCNS(C)(=O)=O [dCKi]
CEM cells [1]; 12 h time point after release from G1 arrest
  reduction of the amount of free dCTP: ~ 50%
CEM cells [1]; [4]
  % sum abundance, de novo DNA-C, mass increase in nucleobase +0, in deoxyribose +3: 0.18% and 0.19%
  % sum abundance, de novo DNA-C, mass increase in nucleobase +0, in deoxyribose +4: 0.58% and 0.55%
  % sum abundance, de novo DNA-C, mass increase in nucleobase +0, in deoxyribose +5: 9.50% and 9.45% and 9.86%
  % sum abundance, de novo DNA-C, mass increase in nucleobase +1, in deoxyribose +3: 0.00%
  % sum abundance, de novo DNA-C, mass increase in nucleobase +1, in deoxyribose +4: 0.09% and 0.07%
  % sum abundance, de novo DNA-C, mass increase in nucleobase +1, in deoxyribose +5: 1.18% and 1.24%
  % sum abundance, de novo DNA-C, mass increase in nucleobase +2, in deoxyribose +4: 0.053% and 0.05%
  % sum abundance, de novo DNA-C, mass increase in nucleobase +2, in deoxyribose +5: 0.82% and 0.79% and 0.87%
  % sum abundance, de novo DNA-C, mass increase in nucleobase +3, in deoxyribose +4: 0.00%
  % sum abundance, de novo DNA-C, mass increase in nucleobase +3, in deoxyribose +5: 0.20% and 0.19%
  % sum abundance, de novo DNA-C, mass increase in nucleobase +4, in deoxyribose +4: 0.00%
  % sum abundance, de novo DNA-C, mass increase in nucleobase +4, in deoxyribose +5: 0.00%
  % sum abundance, salvage DNA-C, mass increase in nucleobase +5, in deoxyribose +0: 0.00%
  % sum abundance, salvage DNA-C, mass increase in nucleobase +5, in deoxyribose +4: 0.00%
  % sum abundance, salvage DNA-C, mass increase in nucleobase +5, in deoxyribose +5: 0.00%
  % sum abundance, salvage DNA-C, mass increase in nucleobase +6, in deoxyribose +0: 0.00%
  % sum abundance, salvage DNA-C, mass increase in nucleobase +6, in deoxyribose +4: 0.00%
  % sum abundance, salvage DNA-C, mass increase in nucleobase +6, in deoxyribose +5: 0.00%
  % sum abundance, salvage DNA-C, mass increase in nucleobase +7, in deoxyribose +0: 0.00%
  % sum abundance, salvage DNA-C, mass increase in nucleobase +7, in deoxyribose +4: 0.00%
  % sum abundance, salvage DNA-C, mass increase in nucleobase +7, in deoxyribose +5: 0.07% and 0.09% and 0.0853%
  % sum abundance, unlabeled DNA-C, mass increase in nucleobase +0, in deoxyribose +0: 77.58% and 77.11% and 77.29%
  % sum abundance, unlabeled DNA-C, mass increase in nucleobase +0, in deoxyribose +1: 4.40% and 4.55% and 4.26%
  % sum abundance, unlabeled DNA-C, mass increase in nucleobase +0, in deoxyribose +2: 0.75% and 0.68% and 0.59%
  % sum abundance, unlabeled DNA-C, mass increase in nucleobase +1, in deoxyribose +0: 4.14% and 4.45% and 4.26%
  % sum abundance, unlabeled DNA-C, mass increase in nucleobase +1, in deoxyribose +1: 0.23% and 0.29% and 0.22%
  % sum abundance, unlabeled DNA-C, mass increase in nucleobase +1, in deoxyribose +2: 0.00%
  % sum abundance, unlabeled DNA-C, mass increase in nucleobase +2, in deoxyribose +0: 0.23% and 0.31% and 0.29%
  % sum abundance, unlabeled DNA-C, mass increase in nucleobase +2, in deoxyribose +1: 0.00%
  % sum abundance, unlabeled DNA-C, mass increase in nucleobase +2, in deoxyribose +2: 0.00%
  % sum abundance, unlabeled DNA-C, mass increase in nucleobase +3, in deoxyribose +0: 0.00%
  % sum abundance, unlabeled DNA-C, mass increase in nucleobase +3, in deoxyribose +1: 0.00%
  % sum abundance, unlabeled DNA-C, mass increase in nucleobase +4, in deoxyribose +0: 0.00%
CEM cells [1]; [5]
  De novo: rate of dCTP incorporation into newly replicated DNA (slope ± standard error of regression line): 0.23 ± 0.01 arbitrary unit
  Ratio (salvage/de novo): 0.082
  Salvage: rate of dCTP incorporation into newly replicated DNA (slope ± standard error of regression line): 0.019 ± 0.004 arbitrary unit
CEM cells [1]; asynchronous CEM, 12 h
  reduction of dCK activity (contribution of labeled [13C9,15N3]dC to intracellular dCMP): ~ 90%
CEM cells [1]; summary Fig. 2g, CEM cells
  Substrate utilization Glucose: ↑
  Substrate utilization dC: ↓↓↓
CEM cells [2]
  Annexin V+ cells (apoptosis induction): 11.1%
[3]; cells harvested from bone marrow of a treated leukemic mouse
  Annexin V+ cells (apoptosis induction): 11.0%
[3]; cells prior to inoculation in mice
  Annexin V+ cells (apoptosis induction): 20.4%
